Test results reported in US20220323521A1, “Compositions and Uses for Engineered Therapeutic Microbes and Associated Receptors” (The Brigham and Women`s Hospital, Inc., priority 2019, published 2022).

Columns and labels:
[1] = test system: human P2Y2 receptor; assay: Flow cytometry evaluation of response to ATP and UTP (pFUS1-mCherry mating pathway reporter in yeast strain BS016); type: cell-based; details: for Follow-up Test Results: response/sensitivity to ATP versus WT, post-sorting follow-up; for ATP Linear Range μM / ATP Max Response (±SE) / ATP Dynamic Range / ATP Linear Range: ligand eATP; for ATP Max Response (±SE) / UTP Max Response (±SE): normalized to maximum mating pathway activation by WT human P2Y2 receptor with eATP; for ATP Dynamic Range / UTP Dynamic Range: ratio of highest fluorescence versus 10% signal saturation; for UTP Max Response (±SE): unit assumed; for signaling in the absence of agonist (constitutive activity): no agonist
Method: (§1) Flow cytometry evaluation of response to ATP and UTP. Yeast strain BS016 transformed with a human P2Y2 gene in the pRS316 pTDH3 vector was grown in SC-URA liquid media overnight. The same strain transformed with a plasmid not containing a P2Y2 sequence (Vector) was used as a negative control. Cells were diluted to OD600 0.05 in 600 μL SC-URA containing ATP (0-25.6 mM; pH 7.0, Bio Basic) or UTP (0-3.2 mM; pH 7.0, Sigma-Aldrich) and incubated for 6 hours at 30° C. Cells were then treated with cycloheximide to a final concentration of 10 μg/mL. The mCherry signal of at least 10,000 cells was measured for each sample with a Miltenyi Biotec MACSQuant VYB. The mean mCherry fluorescence was determined using FlowJo. For dose-response assays, data was fitted with the “log(agonist) vs. response—Variable slope (four parameters)” model in Prism (GraphPad). After subtracting the mCherry fluorescence signal of the Vector control, fluorescence values were normalized to the wild-type P2Y2 control used in the same experiment, to allow comparisons between experiments performed on different days.
(§2) Directed evolution of human P2Y2 receptor. Error-prone PCR mutagenesis was performed using the Agilent GeneMorph II Random Mutagenesis Kit with yeast codon-optimized human P2Y2 as a template, using previously described methods (104). 150 ng of template DNA and 30 cycles achieved the desired mutation rate of ˜3 mutations per P2Y2 gene, determined by sequencing 12 randomly selected plasmids (Table 2). The random mutants were inserted into pRS316 pTDH3 using AarI-based cloning and transformed into NEB 5-alpha competent E. coli cells (New England Biolabs) generating >15,000 individual colonies. Cells were scraped off agar plates, mixed together, and plasmid DNA was extracted (QIAQuick Spin Miniprep Kit, Qiagen) to create the final plasmid library. The library was transformed into yeast strain BS016 using a high-efficiency lithium acetate-based method (105), yielding at least 10-fold the number of colonies as the total library size, so that each mutant would be screened multiple times. Transformed cells were incubated overnight, then diluted to OD600 0.05 into fresh 100 mL SC-URA liquid media containing 100 μM ATP (pH 7.0, Biobasic), and incubated for either 18 or 6 hours at 30° C. (FIG. 8). After brief sonication, 10^6-10^7 cells were gated by side and forward scatter and sorted for the highest ˜1% of mCherry signal using a BD Influx cell sorter (106). A total of 174 yeast colonies recovered from various sorting experiments were individually screened for their response to 100 μM UTP, 100 μM ATP, or with no ligand, after a 6-hour incubation. Plasmids were isolated from selected colonies by first incubating with zymolase (BioShop Canada) then extracting plasmid DNA (QIAQuick Spin Miniprep Kit, Qiagen). Plasmid DNA was amplified using NEB 5-alpha competent E. coli cells (New England Biolabs), the plasmid DNA was sequenced, and fresh BS016 yeast cells were transformed for dose-response experiments.
(§3) Maximum response values were normalized to the maximum mating pathway activation provided by the WT human P2Y2 receptor incubated with eATP. Dynamic range was the ratio of the highest fluorescence obtained in the presence of the indicated ligand versus 10% signal saturation. Linear range was the series of ligand concentrations for which a change in signal can be detected. The minimum limit of the linear range was estimated as the ligand concentration corresponding to 10% signal saturation. Data represents the mean of six colonies for eATP, three colonies for eUTP.

[2] = biological target: T1, human P2Y2 receptor (Homo sapiens, UniProt P41231); assay: as above; type: cell-based; details: for EC50: agonist on WT human P2Y2 in Gpa1-Gαi3 pFUS1-mCherry strain
T1 construct: expressed in transfected cells; host or cells: Saccharomyces cerevisiae strain BS016 (Gpa1-Gαi3 chimera, pFUS1-mCherry reporter), plasmid pRS316 pTDH3
Method: as §1, §2, §3

[3] = ligand concentrations for which a change in signal can be detected
[4] = ligand eUTP, ligand concentrations for which a change in signal can be detected

T1 sequence (P41231 whole entry): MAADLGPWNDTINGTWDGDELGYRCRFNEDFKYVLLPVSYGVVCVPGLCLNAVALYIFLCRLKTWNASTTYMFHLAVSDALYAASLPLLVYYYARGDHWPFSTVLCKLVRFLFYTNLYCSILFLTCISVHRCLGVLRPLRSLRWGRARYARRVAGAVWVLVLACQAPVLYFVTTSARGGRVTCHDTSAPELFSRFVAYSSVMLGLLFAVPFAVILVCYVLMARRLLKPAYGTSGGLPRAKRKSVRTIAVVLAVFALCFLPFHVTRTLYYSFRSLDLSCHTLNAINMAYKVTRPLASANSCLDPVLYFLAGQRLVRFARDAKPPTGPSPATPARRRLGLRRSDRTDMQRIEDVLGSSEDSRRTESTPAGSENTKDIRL

Follow-up Test Results [1]	EC50 [2] [µM]	ATP Linear Range μM [1, 3]	ATP Max Response (±SE) [1] [%]	ATP Dynamic Range [1]	UTP Linear Range [1, 4] [µM]	UTP Max Response (±SE) ([1]; ligand eUTP) [%]	UTP Dynamic Range ([1]; ligand eUTP)	ATP Linear Range [1, 3] [µM]	response to 100 μM eATP (mCherry expression) ([2]; 100 μM eATP)	UTP Linear Range μM [1, 4]	Molecule	signaling in the absence of agonist (constitutive activity) [1]
	1860										Nc1ncnc2c1ncn2[C@@H]1O[C@H](COP(=O)(O)OP(=O)(O)OP(=O)(O)O)[C@@H](O)[C@H]1O [eATP, adenosine triphosphate, reference compound]	
	123										O=c1ccn([C@@H]2O[C@H](COP(=O)(O)OP(=O)(O)OP(=O)(O)O)[C@@H](O)[C@H]2O)c(=O)[nH]1 [eUTP, uridine triphosphate, reference compound]	
		3-2,243 μM	165	9	0.9 to 169	143	8				TM-2: human P2Y2 receptor mutant L59I C119S	
			110	5	0.04 to 63	86	5	0.9 to 284			TM-3: human P2Y2 receptor mutant N116S	increased responsiveness and signaling in the absence of agonist (constitutive activity)
		0.5-8,950^ μM	137	10	0.07 to 31	69	7				TM-4: human P2Y2 receptor mutant L162I Q165H	
		113-25,600 μM	100	8		98	9		weak response	4-1,374 μM	WT: wild-type human P2Y2 receptor (NP_002555.4), yeast codon-optimized [reference compound]	

Second part, the molecule before the results:

Molecule	Follow-up Test Results [1]	EC50 [2] [µM]	ATP Linear Range μM [1, 3]	ATP Max Response (±SE) [1] [%]	ATP Dynamic Range [1]	UTP Linear Range [1, 4] [µM]	UTP Max Response (±SE) ([1]; ligand eUTP) [%]	UTP Dynamic Range ([1]; ligand eUTP)	ATP Linear Range [1, 3] [µM]	response to 100 μM eATP (mCherry expression) ([2]; 100 μM eATP)	UTP Linear Range μM [1, 4]	signaling in the absence of agonist (constitutive activity) [1]
6R1-2: human P2Y2 receptor mutant I214T [Mutant 6R1-2]	No different than WT, not selected for											
18R2-2: human P2Y2 receptor mutant L112S A176V [Mutant 18R2-2]	No different than WT, not selected for											
18R2-23: human P2Y2 receptor mutant V250A [Mutant 18R2-23]	No different than WT, not selected for											
H1-2: human P2Y2 receptor mutant F58L [Mutant H1-2]			4-4,966 μM	122	9	0.05 to 22	101	6				
H1-3: human P2Y2 receptor mutant F58I [Mutant H1-3]			4-3,945 μM	152	10	0.4 to 550	122	8				
H1-4: human P2Y2 receptor mutant F58L S359P [Mutant H1-4]			5-3,882 μM	110	9	0.2 to 61	96	7				
H7-1: human P2Y2 receptor mutant K240N F307S [Mutant H7-1]				181	3	0.02 to 3.1	199	3	0.3 to 18			increased responsiveness and signaling in the absence of agonist (constitutive activity)
H7-2: human P2Y2 receptor mutant A76T A229V F307S (protein, UniProt P41231 1-377, looked up, variant A76T A229V F307S) P2Y purinoceptor 2: MAADLGPWNDTINGTWDGDELGYRCRFNEDFKYVLLPVSYGVVCVPGLCLNAVALYIFLCRLKTWNASTTYMFHLTVSDALYAASLPLLVYYYARGDHWPFSTVLCKLVRFLFYTNLYCSILFLTCISVHRCLGVLRPLRSLRWGRARYARRVAGAVWVLVLACQAPVLYFVTTSARGGRVTCHDTSAPELFSRFVAYSSVMLGLLFAVPFAVILVCYVLMARRLLKPVYGTSGGLPRAKRKSVRTIAVVLAVFALCFLPFHVTRTLYYSFRSLDLSCHTLNAINMAYKVTRPLASANSCLDPVLYSLAGQRLVRFARDAKPPTGPSPATPARRRLGLRRSDRTDMQRIEDVLGSSEDSRRTESTPAGSENTKDIRL				90	2	0.01 to 6	84	3	0.3 to 23			increased responsiveness and signaling in the absence of agonist (constitutive activity)
18R2-18: human P2Y2 receptor mutant W16R V90A A295V (protein, UniProt P41231 1-377, looked up, variant W16R V90A A295V) P2Y purinoceptor 2: MAADLGPWNDTINGTRDGDELGYRCRFNEDFKYVLLPVSYGVVCVPGLCLNAVALYIFLCRLKTWNASTTYMFHLAVSDALYAASLPLLAYYYARGDHWPFSTVLCKLVRFLFYTNLYCSILFLTCISVHRCLGVLRPLRSLRWGRARYARRVAGAVWVLVLACQAPVLYFVTTSARGGRVTCHDTSAPELFSRFVAYSSVMLGLLFAVPFAVILVCYVLMARRLLKPAYGTSGGLPRAKRKSVRTIAVVLAVFALCFLPFHVTRTLYYSFRSLDLSCHTLNAINMAYKVTRPLVSANSCLDPVLYFLAGQRLVRFARDAKPPTGPSPATPARRRLGLRRSDRTDMQRIEDVLGSSEDSRRTESTPAGSENTKDIRL	inconsistent results											
H1-1: human P2Y2 receptor mutant F58C C60Y G310A (protein, UniProt P41231 1-377, looked up, variant F58C C60Y G310A) P2Y purinoceptor 2: MAADLGPWNDTINGTWDGDELGYRCRFNEDFKYVLLPVSYGVVCVPGLCLNAVALYICLYRLKTWNASTTYMFHLAVSDALYAASLPLLVYYYARGDHWPFSTVLCKLVRFLFYTNLYCSILFLTCISVHRCLGVLRPLRSLRWGRARYARRVAGAVWVLVLACQAPVLYFVTTSARGGRVTCHDTSAPELFSRFVAYSSVMLGLLFAVPFAVILVCYVLMARRLLKPAYGTSGGLPRAKRKSVRTIAVVLAVFALCFLPFHVTRTLYYSFRSLDLSCHTLNAINMAYKVTRPLASANSCLDPVLYFLAAQRLVRFARDAKPPTGPSPATPARRRLGLRRSDRTDMQRIEDVLGSSEDSRRTESTPAGSENTKDIRL				149	5	0.05 to 12	128	4	0.5 to 184			
